Data from ChEMBL document CHEMBL1201862, “PubChem BioAssay data set” (2004).
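Grown in 96-well plates, cells were treated for 48 hours with each compound at five concentrations. Insufficient inhibition: endpoint recorded as highest concentration tested. GI50 marks 50% less growth.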 Active and inactive are the calls of the source. Rule as the data show it: active = GI50 up to about 1.1 µM and inactive = higher.

Tests used:
Experiment in all cases: inhibition of tumour cell growth, NCI panel, 48 h
SF-295 = test system: SF-295
LOX IMVI = test system: LOX IMVI
HL-60 = test system: HL-60
SW-620 = test system: SW-620
OVCAR-8 = test system: OVCAR-8
IGROV-1 = test system: IGROV-1
OVCAR-4 = test system: OVCAR-4
HT-29 = test system: HT-29
U-251 = test system: U-251
HCT-116 = test system: HCT-116
SNB-19 = test system: SNB-19
SK-MEL-2 = test system: SK-MEL-2
UACC-257 = test system: UACC-257
OVCAR-3 = test system: OVCAR-3
MDA-MB-435 = test system: MDA-MB-435
SNB-75 = test system: SNB-75
A549 = test system: A549
PC-3 = test system: PC-3
EKVX = test system: EKVX
MOLT-4 = test system: MOLT-4

Measured: GI50

COC(=O)c1cc(-c2ccc3ccccc3c2)nc(O)c1C#N
inactive: SF-295 > 100 µM | LOX IMVI > 100 µM | HL-60 20.3 µM | SW-620 > 100 µM | OVCAR-8 > 100 µM | IGROV-1 > 100 µM | OVCAR-4 > 100 µM | HT-29 > 100 µM | U-251 > 100 µM | HCT-116 > 100 µM | SNB-19 > 100 µM | SK-MEL-2 > 100 µM | UACC-257 > 100 µM | OVCAR-3 > 100 µM | MDA-MB-435 > 100 µM | SNB-75 > 100 µM | A549 > 100 µM | PC-3 > 100 µM | EKVX 71.4 µM

N#Cc1cc(C#N)c(Cl)nc1N
inactive: SF-295 > 10 µM | LOX IMVI > 10 µM | HL-60 3.48 µM | SW-620 > 10 µM | OVCAR-8 > 10 µM | IGROV-1 > 10 µM | OVCAR-4 > 10 µM | HT-29 > 10 µM | U-251 > 10 µM | HCT-116 > 10 µM | MOLT-4 > 10 µM | SNB-19 > 10 µM | SK-MEL-2 > 10 µM | OVCAR-3 > 10 µM | MDA-MB-435 > 10 µM | SNB-75 > 10 µM | A549 > 10 µM | PC-3 > 10 µM | EKVX > 10 µM

Fc1ccc(/C=C2\COCC3=C2NC(=S)NC3c2ccc(F)cc2)cc1 (stereo not drawn)
inactive: SF-295 18.7 µM | LOX IMVI 19.9 µM | HL-60 10.5 µM | SW-620 19.7 µM | OVCAR-8 15.2 µM | IGROV-1 24.9 µM | OVCAR-4 18.1 µM | U-251 20.5 µM | HCT-116 17.3 µM | MOLT-4 20 µM | SNB-19 23.6 µM | SK-MEL-2 15 µM | UACC-257 18.7 µM | OVCAR-3 17.8 µM | MDA-MB-435 18.8 µM | SNB-75 22.2 µM | PC-3 17.3 µM | EKVX 20 µM

CSc1c(C#N)c(S)[nH]c(=O)c1C#N
inactive: LOX IMVI 37.1 µM | HL-60 1.85 µM | SW-620 48.9 µM | OVCAR-8 47.2 µM | IGROV-1 22.8 µM | OVCAR-4 10.4 µM | HT-29 25.4 µM | U-251 > 100 µM | HCT-116 34.4 µM | MOLT-4 33 µM | SNB-19 58.5 µM | SK-MEL-2 13.7 µM | UACC-257 35.8 µM | OVCAR-3 33.8 µM | MDA-MB-435 20.6 µM | SNB-75 32.1 µM | A549 40.7 µM | PC-3 29.4 µM | EKVX 29.6 µM

O=C(O)c1ccc(N2C=[N+]3C(=Nc4ccccc43)C2)cc1
inactive: SF-295 > 100 µM | LOX IMVI > 100 µM | HL-60 > 100 µM | SW-620 > 100 µM | OVCAR-8 > 100 µM | IGROV-1 > 100 µM | OVCAR-4 > 100 µM | HT-29 > 100 µM | U-251 > 100 µM | HCT-116 > 100 µM | SNB-19 > 100 µM | SK-MEL-2 > 100 µM | UACC-257 > 100 µM | OVCAR-3 > 100 µM | MDA-MB-435 > 100 µM | SNB-75 62.7 µM | A549 > 100 µM | PC-3 > 100 µM | EKVX > 100 µM

Cc1c(/N=N/c2ccccc2)c(-c2ccccc2)n(C2OC(CO)C(O)C(O)C2O)c(=S)c1C#N (stereo not drawn)
inactive: SF-295 6.71 µM | LOX IMVI 2.62 µM | HL-60 3.66 µM | SW-620 4.97 µM | OVCAR-8 3.99 µM | IGROV-1 5.75 µM | OVCAR-4 6.1 µM | HT-29 6.59 µM | U-251 4.08 µM | MOLT-4 1.95 µM | SNB-19 7.64 µM | SK-MEL-2 4.48 µM | OVCAR-3 4.56 µM | MDA-MB-435 4.98 µM | SNB-75 2.72 µM | A549 5.83 µM | PC-3 2.99 µM | EKVX 13.8 µM

Cn1c(COC(=O)NC2CCCCC2)c(COC(=O)NC2CCCCC2)c2ccc3cc(C=O)ccc3c21
inactive: SF-295 > 100 µM | LOX IMVI > 100 µM | HL-60 38.1 µM | SW-620 > 100 µM | OVCAR-8 > 100 µM | IGROV-1 > 100 µM | HT-29 > 100 µM | U-251 27.9 µM | HCT-116 > 100 µM | MOLT-4 > 100 µM | SNB-19 > 100 µM | SK-MEL-2 > 100 µM | UACC-257 > 100 µM | OVCAR-3 > 100 µM | MDA-MB-435 45.7 µM | SNB-75 18.6 µM | A549 > 100 µM | PC-3 > 100 µM | EKVX > 100 µM

O=c1/c(=C/c2ccc([N+](=O)[O-])o2)sc2n1[C@@H](c1ccc(Cl)cc1)C=C(c1cc(F)c(Cl)cc1Cl)N=2
inactive: SF-295 21.3 µM | LOX IMVI 16 µM | HL-60 12.3 µM | SW-620 4.91 µM | OVCAR-8 4.16 µM | IGROV-1 15.8 µM | OVCAR-4 16.6 µM | HT-29 6.62 µM | U-251 8.02 µM | HCT-116 3.56 µM | MOLT-4 12.9 µM | SNB-19 15.9 µM | SK-MEL-2 5.04 µM | UACC-257 15.4 µM | MDA-MB-435 16.1 µM | SNB-75 29.2 µM | A549 30.3 µM | PC-3 11.5 µM

N#C/C(C(=O)Nc1ccc(Cl)cc1)=C(/N)N1CCCCC1
inactive: SF-295 54 µM | LOX IMVI 83.4 µM | HL-60 10 µM | SW-620 > 100 µM | OVCAR-8 41.2 µM | IGROV-1 66.5 µM | U-251 56.5 µM | HCT-116 99.5 µM | MOLT-4 > 100 µM | SNB-19 36.8 µM | SK-MEL-2 > 100 µM | UACC-257 > 100 µM | OVCAR-3 > 100 µM | MDA-MB-435 > 100 µM | SNB-75 24.7 µM | A549 > 100 µM | PC-3 > 100 µM | EKVX 45.1 µM

Brc1c(C#CCC2CCCCC2)ccc(C#CCC2CCCCC2)c1Br
inactive: SF-295 > 100 µM | LOX IMVI > 100 µM | HL-60 > 100 µM | SW-620 > 100 µM | OVCAR-8 > 100 µM | IGROV-1 > 100 µM | OVCAR-4 > 100 µM | U-251 > 100 µM | MOLT-4 > 100 µM | SNB-19 > 100 µM | SK-MEL-2 > 100 µM | UACC-257 > 100 µM | OVCAR-3 > 100 µM | MDA-MB-435 > 100 µM | SNB-75 > 100 µM | A549 > 100 µM | PC-3 > 100 µM | EKVX > 100 µM

COc1ccc(/N=N/c2c(C)c(C#N)c(=S)n(C3OC(CO)C(O)C(O)C3O)c2-c2ccccc2)cc1 (stereo not drawn)
inactive: SF-295 30.8 µM | LOX IMVI 27.8 µM | HL-60 58.2 µM | SW-620 26.1 µM | IGROV-1 30.4 µM | OVCAR-4 31.9 µM | HT-29 32.5 µM | U-251 29 µM | HCT-116 30.1 µM | MOLT-4 9.04 µM | SNB-19 41.3 µM | SK-MEL-2 33 µM | UACC-257 48.8 µM | OVCAR-3 24.7 µM | MDA-MB-435 24.5 µM | SNB-75 17.2 µM | A549 36.7 µM | PC-3 17.1 µM
